Laboratory results reported in publication PMC9848300, “Discovery of novel enasidenib analogues targeting inhibition of mutant isocitrate dehydrogenase 2 as antileukaemic agents” (Journal of Enzyme Inhibition and Medicinal Chemistry, 2023).
Positions count from the first letter of the chain named.

Tests used:
[1] = tested on: IDH2 R140Q; details: Figure 2; cited from earlier work
[2] = tested on: CCRF-CEM; experiment: NCI 60 antitumor screening (single dose / five doses); type: cell-based; details: Homo sapiens, CCRF-CEM
[3] = tested on: HL-60(TB); experiment: as above; type: cell-based; details: Homo sapiens, HL-60
[4] = tested on: K-562; experiment: as above; type: cell-based; details: Homo sapiens, K562
[5] = tested on: MOLT-4; experiment: as above; type: cell-based; details: Homo sapiens, MOLT-4
[6] = tested on: RPMI-8226; experiment: as above; type: cell-based; details: Homo sapiens, RPMI-8226
[7] = tested on: SR; experiment: as above; type: cell-based; details: Homo sapiens, SR
[8] = tested on: EKVX; experiment: as above; type: cell-based; details: Homo sapiens, EKVX
[9] = tested on: HOP-92; experiment: as above; type: cell-based; details: Homo sapiens, HOP-92
[10] = tested on: COLO 205; experiment: as above; type: cell-based; details: Homo sapiens, COLO 205
[11] = tested on: HCT-116; experiment: as above; type: cell-based; details: Homo sapiens, HCT-116
[12] = tested on: HCT-15; experiment: as above; type: cell-based; details: Homo sapiens, HCT-15
[13] = tested on: HT29; experiment: as above; type: cell-based, human; details: Homo sapiens, HT-29
[14] = tested on: SW-620; experiment: as above; type: cell-based, human; details: Homo sapiens, SW-620
[15] = tested on: SF-295; experiment: as above; type: cell-based; details: Homo sapiens, SF-295
[16] = tested on: SF-539; experiment: as above; type: cell-based; details: Homo sapiens, SF-539
[17] = tested on: SNB-75; experiment: as above; type: cell-based; details: Homo sapiens, SNB-75
[18] = tested on: LOX IMVI; experiment: as above; type: cell-based; details: Homo sapiens, LOX IMVI
[19] = tested on: MALME-3M; experiment: as above; type: cell-based; details: Homo sapiens, Malme-3M
[20] = tested on: MDA-MB-435; experiment: as above; type: cell-based; details: Homo sapiens, MDA-MB-435
[21] = tested on: SK-MEL-28; experiment: as above; type: cell-based; details: Homo sapiens, SK-MEL-28
[22] = tested on: SK-MEL-5; experiment: as above; type: cell-based; details: Homo sapiens, SK-MEL-5
[23] = tested on: UACC-257; experiment: as above; type: cell-based; details: Homo sapiens, UACC-257
[24] = tested on: UACC-62; experiment: as above; type: cell-based; details: Homo sapiens, UACC-62
[25] = tested on: IGROV1; experiment: as above; type: cell-based; details: Homo sapiens, IGROV-1
[26] = tested on: NCI/ADR-RES; experiment: as above; type: cell-based; details: Homo sapiens, NCI/ADR-RES
[27] = tested on: 786-0; experiment: as above; type: cell-based; details: Homo sapiens, 786-0
[28] = tested on: A498; experiment: as above; type: cell-based; details: Homo sapiens, A498
[29] = tested on: ACHN; experiment: as above; type: cell-based; details: Homo sapiens, ACHN
[30] = tested on: RXF 393; experiment: as above; type: cell-based; details: Homo sapiens, RXF 393
[31] = tested on: SN 12C; experiment: as above; type: cell-based; details: Homo sapiens, SN12C
[32] = tested on: UO-31; experiment: as above; type: cell-based; details: Homo sapiens, UO-31
[33] = tested on: DU-145; experiment: as above; type: cell-based; details: Homo sapiens, DU-145
[34] = tested on: MDA-MB-231/ATCC; experiment: as above; type: cell-based; details: Homo sapiens, MDA-MB-231
[35] = tested on: BT-549; experiment: as above; type: cell-based; details: Homo sapiens, BT-549
[36] = tested on: T-47D; experiment: as above; type: cell-based; details: Homo sapiens, T47D
[37] = tested on: MDA-MB-468; experiment: as above; type: cell-based; details: Homo sapiens, MDA-MB-468
[38] = target: T1, IDH2^R140Q (Homo sapiens, UniProt P48735, R140Q); experiment: biochemical
T1 sequence (P48735 40-452 R140Q): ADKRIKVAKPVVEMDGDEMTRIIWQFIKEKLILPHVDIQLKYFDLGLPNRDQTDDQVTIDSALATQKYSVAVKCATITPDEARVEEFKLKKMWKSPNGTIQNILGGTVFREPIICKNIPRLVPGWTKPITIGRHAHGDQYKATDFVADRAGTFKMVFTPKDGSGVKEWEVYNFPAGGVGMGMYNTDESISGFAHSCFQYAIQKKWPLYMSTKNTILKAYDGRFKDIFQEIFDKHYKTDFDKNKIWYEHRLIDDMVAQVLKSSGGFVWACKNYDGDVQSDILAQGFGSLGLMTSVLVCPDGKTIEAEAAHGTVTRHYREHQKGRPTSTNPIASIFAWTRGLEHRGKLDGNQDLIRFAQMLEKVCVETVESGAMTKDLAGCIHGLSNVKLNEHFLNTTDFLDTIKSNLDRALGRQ

[39] = target: T2, wild type IDH2 (Homo sapiens, UniProt P48735); experiment: IDH2 enzyme inhibition assay (wild type IDH Assay Kit)
T2 sequence (P48735 40-452): T1 sequence (P48735 40-452 R140Q) with Q101R

[40] = tested on: IDH1 R132H; details: Figure 2; cited from earlier work

In the case of `O=C(Nc1cccc(C(F)(F)F)c1)Nc1cc(S(=O)(=O)NC2CC2)ccc1-c1ccsc1` [AGI-6780], the IC50 [1] is given as 0.023 µM.
For `Cc1ccc(Cl)cc1NC(=O)Nc1cc(NC(=O)c2ccccc2)ccc1N1CCCC1` [CP-17], the IC50 [1] is listed as 0.041 µM.
With `CC(C)(O)CNc1nc(Nc2ccnc(C(F)(F)F)c2)nc(-c2cccc(C(F)(F)F)n2)n1` [Enasidenib] the GI50 [2] was 19.9 µM, the GI50 [3] was 19.9 µM and the GI50 [4] was 31.6 µM. The GI50 [5] was 12.6 µM, the GI50 [6] was 19.9 µM and the GI50 [7] was 19.9 µM. It also gave a GI50 [8] of 19.9 µM, a GI50 [9] of 25.1 µM and a GI50 [10] of 19.9 µM. The GI50 [11] was 15.8 µM, the GI50 [12] was 19.9 µM and the GI50 [13] was 15.8 µM. For the same molecule, the GI50 [14] was 25.1 µM, the GI50 [15] was 15.8 µM and the GI50 [16] was 15.8 µM. It also gave a GI50 [17] of 15.8 µM, a GI50 [18] of 15.8 µM and a GI50 [19] of 19.9 µM. It also gave a GI50 [20] of 15.8 µM, a GI50 [21] of 15.8 µM and a GI50 [22] of 12.6 µM. The GI50 [23] was 19.9 µM, the GI50 [24] was 15.8 µM and the GI50 [25] was 31.6 µM. It also gave a GI50 [26] of 15.8 µM, a GI50 [27] of 19.9 µM and a GI50 [28] of 15.8 µM. The GI50 [29] was 25.1 µM, the GI50 [30] was 19.9 µM and the GI50 [31] was 19.9 µM. For the same molecule, the GI50 [32] was 19.9 µM, the GI50 [33] was 19.9 µM and the GI50 [34] was 19.9 µM. It also gave a GI50 [35] of 15.8 µM, a GI50 [36] of 15.8 µM and a GI50 [37] of 19.9 µM. For the same molecule, the IC50 [1] was 0.1 µM, the IC50 [38] was 0.0755 ± 0.00369 µM and the IC50 [39] was 2.33 ± 0.09 µM.
For `CC(C)Nc1cc(Nc2cccc(C(F)(F)F)n2)nc(-c2cccc(C(F)(F)F)c2)c1` [III], the IC50 [1] is listed as 0.074 µM.
In the case of `CC(C)Nc1cc(Nc2cccc(C(F)(F)F)n2)nc(-c2cccc(Cl)c2)c1` [II], the IC50 [1] is given as 0.06 µM.
In the case of `CC(C)Nc1cc(Nc2cc(C(F)(F)F)ccn2)nc(-c2ccccc2)c1` [I], the IC50 [1] is given as 0.055 µM.
In the case of `CC(C)(C)ONc1nc(Nc2ccnc(C(F)(F)F)c2)nc(-c2cccc(C(F)(F)F)n2)n1` [TQ05310], the IC50 [1] is listed as 0.137 µM.
In the case of `C[C@@H](Nc1nc(N[C@H](C)C(F)(F)F)nc(-c2cccc(Cl)n2)n1)C(F)(F)F` [Vorasidenib], the IC50 [40] is listed as 0.006 µM.
